We go through 28 compounds from the Kinase Knowledgebase extract (Sharma et al. 2016).

One may read the IC50 as the midpoint of a concentration-inhibition curve. A low value points to greater potency.

This assay addresses CDK2 (UniProt P24941). The assay is described as follows: Enzyme Assay.
In the case of `O=C(Nc1n[nH]c2c1CCC2)c1ccccc1`, the IC50 came to 7 µM.

In the case of `COc1cccc(-c2ccc(CC(=O)Nc3n[nH]c4c3CCC4)cc2)c1`, the IC50 was less than 10 µM.

On to `COc1ccc(CC(=O)Nc2n[nH]c3c2CCC3)cc1`, for which the concentration for half-maximal inhibition (IC50) was found to be 0.7 µM.

`O=C(Cc1cccc(Br)c1)Nc1n[nH]c2c1CCC2` showed an IC50 of 1.5 µM.

Regarding `COc1ccc(-c2ccc(CC(=O)Nc3n[nH]c4c3CCC4)cc2)cc1`, the IC50 is less than 10 µM.

As to `O=C(Cc1ccc(Br)cc1)Nc1n[nH]c2c1CCC2`, the half-inhibitory concentration (IC50) came out at 1.1 µM.

On to `COc1ccc(OC)c(CC(=O)Nc2n[nH]c3c2CCC3)c1`, for which the IC50 was determined as 5.2 µM.

With `O=C(Cc1ccc(-c2ccccc2F)cc1)Nc1n[nH]c2c1CCC2`, the IC50 turned out to be 7 µM.

Compound `COc1ccccc1-c1ccc(CC(=O)Nc2n[nH]c3c2CCC3)cc1` showed a half-maximal inhibitory concentration (IC50) of less than 10 µM.

The compound `O=C(Nc1n[nH]c2c1CCC2)c1cccs1` yielded a half-inhibitory concentration (IC50) of 4 µM.

Take `O=C(Nc1n[nH]c2c1CCC2)c1cccc(F)c1`: the IC50 came out at 5 µM.

The compound `O=C(Nc1n[nH]c2c1CCC2)C1CC1` had an IC50 of 4 µM.

As to `CC(C)(C)c1ccc(CC(=O)Nc2n[nH]c3c2CCC3)cc1`, the IC50 was 1 µM.

The compound `O=C(Cc1ccc(-c2ccccc2)cc1)Nc1n[nH]c2c1CCC2` registered an IC50 of 1 µM.

As for `CSc1ccc(CC(=O)Nc2n[nH]c3c2CCC3)cc1`, the IC50 came to 1.5 µM.

In the case of `O=C(Cc1ccc(F)cc1)Nc1n[nH]c2c1CCC2`, the IC50 was 3 µM.

As for `O=C(Cc1ccc(I)cc1)Nc1n[nH]c2c1CCC2`, the IC50 is 0.8 µM.

In the case of `O=C(Cc1ccc(-c2cccc(F)c2)cc1)Nc1n[nH]c2c1CCC2`, the IC50 was determined as 7 µM.

In turn, `O=C(Cc1cccs1)Nc1n[nH]c2c1CCC2` came in with an IC50 of 4 µM.

In turn, `O=C(Cc1cccc(-c2ccccc2)c1)Nc1n[nH]c2c1CCC2` came in with an IC50 of 8 µM.

On to `COc1cccc(CC(=O)Nc2n[nH]c3c2CCC3)c1`, for which the IC50 was determined as 7.6 µM.

Take `O=C(Cc1ccccc1)Nc1n[nH]c2c1CCC2`: the IC50 came out at 1.5 µM.

The compound `O=C(Cc1ccc(-c2ccc(F)cc2)cc1)Nc1n[nH]c2c1CCC2` displayed an IC50 of less than 10 µM.

As to `CC(=O)c1ccc(-c2ccc(CC(=O)Nc3n[nH]c4c3CCC4)cc2)cc1`, the IC50 stood at 6.5 µM.

`CC(=O)c1cccc(-c2ccc(CC(=O)Nc3n[nH]c4c3CCC4)cc2)c1` showed an IC50 of 4.3 µM.

On to `O=C(Nc1n[nH]c2c1CCC2)c1ccc2c(c1)OCO2`, for which the IC50 is 4 µM.

`O=C(CCc1ccccc1)Nc1n[nH]c2c1CCC2` had an IC50 of 3 µM.

As to `COc1ccc(C(=O)Nc2n[nH]c3c2CCC3)cc1`, the IC50 amounted to 6 µM.
